Key:
Format in all cases: cell-based
[1] = target: Ba/F3 EML4-ALK v1 I1171N/D1203N (Homo sapiens (Human), UniProt Q9HC35+Q9UM73, D1203N/I1171N); test: Ba/F3 cell proliferation assay, EML4-ALK v1 I1171N/D1203N; details: for IC50: Ba/F3 stable cells, 72 hours, CellTiter-Glo; for ETV6-TRKB / EML4-ALK v1 I1171N/D1203N / Selectivity for Ba/F3 EML4-ALK v1 I1171N-D1203N IC50 over Ba/F3 ETV6-TRKB IC50: TRKB selectivity, ratio of Ba/F3 IC50 values; for Selectivity for Ba/F3 EML4-ALK v1 I1171N-D1203N IC50 over Ba/F3 ETV6-TRKB IC50: Table 6 bins
Source text: (§1) Genes encoding EML4-ALK v1 (variant 1), EML4-ALK v1 G1202R, EML4-ALK v1 I1171IN, EML4-ALK v1 D1203N, EML4-ALK v1 I1171N/D1203N, and ETV6-TRKB were synthesized at GeneRay, cloned into the retroviral construct pMSCV-puro (Biovector), and packaged into retroviral particles. The virus was used to infect Ba/F3 cells (RIKEN) at multiplicity of infection=1 for 1 day. Infected cells were rescued in media (RPMI-1640 with 10% fetal bovine serum and 1% streptomycin and penicillin) supplemented with mouse IL-3 (10 ng/mL) for 2 days, and stable cell lines were selected by IL-3 withdrawal and puromycin (0.8 μg/mL) for 7 days. Monoclones were selected by single-cell dilution in IL-3-free medium containing puromycin (0.8 μg/mL). Transformation of desired genes was confirmed by Sanger sequencing and western blot using the following antibodies: ALK (CST #3633) and pan-TRK (Abcam #76291).
(§2) Stable cells were plated in a 384-well plate. Test compounds were then added in a 3-fold dilution series and incubated for 72 hours. CellTiter-Glo reagent (Promega) was added. Luminescence was measured on a plate reader. Half-maximal inhibitory concentration (ICso) was calculated from percent inhibition and inhibitor concentration using four-parameter logistic regression. Compound potency can be interpreted by binning IC50 values: bin A for high potency, 0.1 nM IC50<50 nM; bin B for medium potency, 50 nM<IC50<500 nM; and bin C for low potency, IC50>500 nM. […] Exemplary data is given in Table 4 (nd is not determined).
(§3) Ba/F3 proliferation is driven by the transduced oncogenes in the same way that cancer cell proliferation in humans is driven by the expression of equivalent oncogenes.
(§4) TRKB selectivity was calculated by dividing a compound's TRKB potency by its primary target potency (e.g., ETV6-TRKB IC50/EML4-ALK v1 IC50). Compound selectivity can be interpreted by binning ratio values: bin A for very high selectivity, ratio≥30-fold; bin B for high selectivity, ratio≥10-fold but<30; bin C for moderate selectivity, ratio≥1 but<10; and bin D for low selectivity, ratio<1. […] (nd=not determined).
Additional exemplified compounds were also tested against ALK-INDN and TRKB. The TRKB selectivity was calculated by dividing a compound's TRKB potency by its primary target potency (e.g., ETV6-TRKB IC50/EMIL4-ALK I1171N-D1203N v1 IC50). Compound selectivity can be interpreted by binning ratio values: bin AA for the selectivity with the ratio≥30-fold; bin BB for the selectivity with the ratio≥10-fold but<30; bin CC for the selectivity with the ratio≥5 but<10; bin DD for the selectivity with the ratio≥1 but<5; and bin EE for the selectivity with the ratio<1.

Ba/F3 ETV6-TRKB = Ba/F3 ETV6-TRKB (Homo sapiens, UniProt Q16620); test: Ba/F3 cell proliferation assay, ETV6-TRKB; details: Ba/F3 stable cells, 72 hours, CellTiter-Glo; read-out: ETV6-TRKB IC50
Source text: as §1, §2, §3

Ba/F3 EML4-ALK v1 I1171N = Ba/F3 EML4-ALK v1 I1171N (Homo sapiens (Human), UniProt Q9HC35+Q9UM73, I1171N); test: Ba/F3 cell proliferation assay, EML4-ALK v1 I1171N; details: for IC50: Ba/F3 stable cells, 72 hours, CellTiter-Glo; for ETV6-TRKB / EML4-ALK v1 I1171N: TRKB selectivity, ratio of Ba/F3 IC50 values
Source text: as §1, §2, §3, §4

Chain of Ba/F3 ETV6-TRKB (Q16620 32-822 limits assumed, change not shown): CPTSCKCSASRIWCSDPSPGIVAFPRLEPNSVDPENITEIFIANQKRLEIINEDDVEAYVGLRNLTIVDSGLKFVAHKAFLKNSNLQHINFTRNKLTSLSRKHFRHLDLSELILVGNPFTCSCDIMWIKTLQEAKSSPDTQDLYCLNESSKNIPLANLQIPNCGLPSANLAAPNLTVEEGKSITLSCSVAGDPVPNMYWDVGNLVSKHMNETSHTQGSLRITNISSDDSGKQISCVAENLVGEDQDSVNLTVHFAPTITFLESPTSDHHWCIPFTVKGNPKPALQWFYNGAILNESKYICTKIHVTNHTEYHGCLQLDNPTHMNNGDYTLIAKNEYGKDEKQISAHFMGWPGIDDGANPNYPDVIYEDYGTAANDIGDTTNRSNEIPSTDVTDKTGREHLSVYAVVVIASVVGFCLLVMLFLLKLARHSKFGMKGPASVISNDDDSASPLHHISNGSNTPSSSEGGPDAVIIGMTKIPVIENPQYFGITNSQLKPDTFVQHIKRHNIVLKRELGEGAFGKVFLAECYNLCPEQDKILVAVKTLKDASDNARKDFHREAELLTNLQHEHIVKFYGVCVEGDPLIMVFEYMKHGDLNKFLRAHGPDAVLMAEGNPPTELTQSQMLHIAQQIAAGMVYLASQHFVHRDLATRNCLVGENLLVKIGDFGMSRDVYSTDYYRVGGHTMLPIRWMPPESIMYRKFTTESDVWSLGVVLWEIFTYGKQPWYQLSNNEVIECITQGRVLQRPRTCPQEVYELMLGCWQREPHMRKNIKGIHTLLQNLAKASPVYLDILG
Chain of Ba/F3 EML4-ALK v1 I1171N (Q9UM73 other isoform, or with tags, fused parts or gaps I1171N): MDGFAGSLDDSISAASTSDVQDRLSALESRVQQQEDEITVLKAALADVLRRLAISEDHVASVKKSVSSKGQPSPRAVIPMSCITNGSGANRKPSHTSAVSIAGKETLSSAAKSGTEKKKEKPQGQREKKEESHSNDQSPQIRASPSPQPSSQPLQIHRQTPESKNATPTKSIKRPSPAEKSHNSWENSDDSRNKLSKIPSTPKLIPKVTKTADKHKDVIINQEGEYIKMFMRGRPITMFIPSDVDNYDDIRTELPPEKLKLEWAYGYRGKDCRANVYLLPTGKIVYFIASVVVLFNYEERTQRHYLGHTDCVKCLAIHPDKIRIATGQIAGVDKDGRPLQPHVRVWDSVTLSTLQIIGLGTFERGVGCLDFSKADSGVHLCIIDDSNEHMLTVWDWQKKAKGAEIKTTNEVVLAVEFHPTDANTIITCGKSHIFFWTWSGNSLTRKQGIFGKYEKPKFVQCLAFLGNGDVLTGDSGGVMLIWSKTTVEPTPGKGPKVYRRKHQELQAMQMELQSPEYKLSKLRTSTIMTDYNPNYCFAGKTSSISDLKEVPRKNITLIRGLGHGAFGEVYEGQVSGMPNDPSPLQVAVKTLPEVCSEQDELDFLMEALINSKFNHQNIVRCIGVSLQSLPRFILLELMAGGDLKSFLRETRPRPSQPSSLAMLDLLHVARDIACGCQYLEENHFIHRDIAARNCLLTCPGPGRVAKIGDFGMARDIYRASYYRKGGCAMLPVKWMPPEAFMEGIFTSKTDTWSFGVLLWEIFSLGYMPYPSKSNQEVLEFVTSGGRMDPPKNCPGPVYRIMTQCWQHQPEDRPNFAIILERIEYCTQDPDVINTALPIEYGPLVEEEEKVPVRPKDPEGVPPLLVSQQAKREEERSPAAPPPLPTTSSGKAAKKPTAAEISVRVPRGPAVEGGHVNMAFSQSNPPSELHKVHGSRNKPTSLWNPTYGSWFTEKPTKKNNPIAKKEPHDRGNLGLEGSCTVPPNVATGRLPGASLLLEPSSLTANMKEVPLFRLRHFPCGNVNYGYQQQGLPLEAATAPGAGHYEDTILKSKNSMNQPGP
Chain of Ba/F3 EML4-ALK v1 I1171N/D1203N (Q9UM73 other isoform, or with tags, fused parts or gaps I1171N/D1203N): as the sequence (Q9UM73 other isoform, or with tags, fused parts or gaps I1171N) above, with D642N counted along it

| Compound | IC50 [1] | ETV6-TRKB / EML4-ALK v1 I1171N/D1203N [1] | IC50 (Ba/F3 ETV6-TRKB) | IC50 (Ba/F3 EML4-ALK v1 I1171N) | ETV6-TRKB / EML4-ALK v1 I1171N (Ba/F3 EML4-ALK v1 I1171N) | Selectivity for Ba/F3 EML4-ALK v1 I1171N-D1203N IC50 over Ba/F3 ETV6-TRKB IC50 [1] |
| --- | --- | --- | --- | --- | --- | --- |
| C[C@H]1Oc2cc(cnc2N)-c2c(c(C#N)nn2CC2CC2)Cc2cn(C)nc2-c2ccc(F)cc21 [Example 1, (19R)-22-amino-3-(cyclopropylmethyl)-16-fluoro-10,19-dimethyl-20-oxa-3,4,10,11,23-pentaazapentacyclo[19.3.1.0^2,6.0^8,12.0^13,18]pentacosa-1(24),2(6),4,8,11,13,15,17,21(25),22-decaene-5-carbonitrile] | > 500 nM | C (bin C for moderate selectivity, ratio≥1 but<10) | > 500 nM | 50 to 500 nM | B (bin B for high selectivity, ratio≥10-fold but<30) | – |
| CCn1ncc2c1-c1cnc(N)c(c1)O[C@H](C)c1cc(F)ccc1-c1ncccc1O2 [Example 14, (R)-3-ethyl-17-fluoro-20-methyl-7,21-dioxa-3,4,12,24-tetraazapentacyclo[20.3.1.0^2,^6.0^8,^13.0^14,^19]hexacosa-1(25),2(6),4,8(13),9,11,14,16,18,22(26),23-undecaen-23-ylamine] | 50 to 500 nM | – | 0.1 to 50 nM | 0.1 to 50 nM | – | – |
| CCn1ncc2c1-c1cnc(N)c(c1)O[C@H](C)c1cc(F)ccc1-c1nn(C)cc1C2=O [Example 15, (R)-22-amino-3-ethyl-16-fluoro-10-methyl-19-methyl-20-oxa-3,4,10,11,23-pentaazapentacyclo[19.3.1.0^2,^6.0^8,^12.0^13,^18]pentacosa-1(24),2(6),4,8,11,13,15,17,21(25),22-decaen-7-one] | 50 to 500 nM | C (bin C for moderate selectivity, ratio≥1 but<10) | 50 to 500 nM | > 500 nM | D (bin D for low selectivity, ratio<1) | DD (bin DD for the selectivity with the ratio≥1 but<5) |
| C[C@H]1Oc2cc(cnc2N)-c2c(nn(C)c2C#N)C(=O)c2cccnc2-c2c(F)cc(F)cc21 [Example 21, (R)-23-amino-15,17-difluoro-4-methyl-20-methyl-7-oxo-21-oxa-4,5,12,24-tetraazapentacyclo[20.3.1.0^2,^6.0^8,^13.0^14,^19]hexacosa-1(25),2,5,8,10,12,14,16,18,22(26),23-undecaene-3-carbonitrile] | 0.1 to 50 nM | A (bin A for very high selectivity, ratio≥30-fold) | 50 to 500 nM | 0.1 to 50 nM | B (bin B for high selectivity, ratio≥10-fold but<30) | AA (bin AA for the selectivity with the ratio≥30-fold) |
| C[C@H]1Oc2cc(cnc2N)-c2c(nn(C)c2C#N)C(=O)c2cn(C)nc2-c2c(F)cc(F)cc21 [Example 26, (R)-22-amino-14,16-difluoro-4,10-dimethyl-19-methyl-7-oxo-20-oxa-4,5,10,11,23-pentaazapentacyclo[19.3.1.0^2,^6.0^8,^12.0^13,^18]pentacosa-1(24),2,5,8,11,13,15,17,21(25),22-decaene-3-carbonitrile] | 0.1 to 50 nM | A (bin A for very high selectivity, ratio≥30-fold) | > 500 nM | 50 to 500 nM | A (bin A for very high selectivity, ratio≥30-fold) | AA (bin AA for the selectivity with the ratio≥30-fold) |
| Cc1cc2n(n1)-c1c(F)cc(F)cc1[C@@H](C)Oc1cc(cnc1N)-c1c(nn(C)c1C#N)C2=O [Example 68, (R)-22-amino-14,16-difluoro-4-methyl-10,19-dimethyl-7-oxo-20-oxa-4,5,11,12,23-pentaazapentacyclo[19.3.1.0^2,^6.0^8,^12.0^13,^18]pentacosa-1(24),2,5,8,10,13,15,17,21(25),22-decaene-3-carbonitrile] | 50 to 500 nM | – | > 500 nM | – | – | – |
| Cc1cc2n(n1)-c1c(F)cc(F)cc1[C@@H](C)Oc1cc(cnc1N)-c1c(C#N)nn(C)c1C2=O [Example 69, (R)-22-amino-14,16-difluoro-5-methyl-10,19-dimethyl-7-oxo-20-oxa-4,5,11,12,23-pentaazapentacyclo[19.3.1.0^2,^6.0^8,^12.0^13,^18]pentacosa-1(24),2(6),3,8,10,13,15, 17,21(25),22-decaene-3-carbonitrile] | 0.1 to 50 nM | B (bin B for high selectivity, ratio≥10-fold but<30) | 50 to 500 nM | – | – | – |
| CC1Oc2cc(cnc2N)-c2c(c(C#N)nn2CC2CC2)Cc2cn(C)nc2-c2c(F)cc(F)cc21 (centres unmarked) [Example 70, 22-amino-3-(cyclopropylmethyl)-14,16-difluoro-10,19-dimethyl-20-oxa-3,4,10,11,23-pentaazapentacyclo[19.3.1.0^2,^6.0^8,^12.0^13,^18]pentacosa-1(24),2(6),4,8,11,13,15,17,21(25),22-decaene-5-carbonitrile] | > 500 nM | C (bin C for moderate selectivity, ratio≥1 but<10) | > 500 nM | – | – | – |
| Cc1nc2c(s1)C(=O)c1c(c(C#N)nn1C)-c1cnc(N)c(c1)O[C@H](C)c1cc(F)ccc1-2 [Example 74, (R)-22-amino-16-fluoro-5-methyl-10,19-dimethyl-7-oxo-20-oxa-9-thia-4,5,11,23-tetraazapentacyclo[19.3.1.0^2,^6.0^8,^12.0^13,^18]pentacosa-1(24),2(6),3,8(12),10,13,15,17,21(25),22-decaene-3-carbonitrile] | 50 to 500 nM | C (bin C for moderate selectivity, ratio≥1 but<10) | > 500 nM | – | – | CC (bin CC for the selectivity with the ratio≥5 but<10) |
| C[C@H]1Oc2nc(cnc2N)-c2c(nn(C)c2C#N)C(=O)c2cccnc2-c2ccc(F)cc21 [Example 75, (R)-23-amino-17-fluoro-4-methyl-20-methyl-7-oxo-21-oxa-4,5,12,24,26-pentaazapentacyclo[20.3.1.0^2,^6.0^8,^13.0^14,^19]hexacosa-1(25),2,5,8(13),9,11,14,16,18,22(26),23-undecaene-3-carbonitrile] | 0.1 to 50 nM | A (bin A for very high selectivity, ratio≥30-fold) | 0.1 to 50 nM | – | – | – |
| C[C@H]1Oc2cc(cnc2N)-c2c(C#N)nn(C)c2C(O)c2cn(C)nc2-c2c(F)cc(F)cc21 (stereo partly drawn) [Example 79, (19R)-22-amino-14,16-difluoro-7-hydroxy-5,10-dimethyl-19-methyl-20-oxa-4,5,10,11,23-pentaazapentacyclo[19.3.1.0^2,^6.0^8,^12.0^13,^18]pentacosa-1(24),2(6),3,8,11,13,15,17,21(25),22-decaene-3-carbonitrile] | 50 to 500 nM | C (bin C for moderate selectivity, ratio≥1 but<10) | > 500 nM | – | – | – |
| (7S,20R)-23-amino-17-fluoro-7-hydroxy-4-methyl-20-methyl-21-oxa-4,5,12,24-tetraazapentacyclo[20.3.1.0^2,6.0^8,13.0^14,19]hexacosa-1(25),2,5,8(13),9,11,14,16,18,22(26),23-undecaene-3-carbonitrile [Example 78] | 50 to 500 nM | B (bin B for high selectivity, ratio≥10-fold but<30) | > 500 nM | – | – | – |
| (R)-22-amino-14,16-difluoro-4-methyl-10,19-dimethyl-7-oxo-20-oxa-9-thia-4,5,11,23-tetraazapentacyclo[19.3.1.0^2,6.0^8,12.0^13,18]pentacosa-1(24),2,5,8(12),10,13,15,17,21(25),22-decaene-3-carbonitrile [Example 80] | 0.1 to 50 nM | B (bin B for high selectivity, ratio≥10-fold but<30) | 50 to 500 nM | – | – | – |
